Experimental data published in the supplement of paper PMC11061612.

Legend:
[1] = tested on: OCUB-M (Breast Carcinoma); test: combination Emax (second highest fraction inhibited in the dose matrix, 72 h); higher = more inhibition; extreme values may be limits of the assay
Method in brief: (§1)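 Bliss excess equals the observed combination effect minus the expected value EA + EB − EA·EB, where EA and EB are the effects of each agent alone. Combination Emax is the second-highest inhibition within the matrix. Inhibition was scaled from CellTiter-Glo 2.0 luminescence, with 0 set by vehicle wells and 1 by blank wells, after 72 hours of two-drug dosing of cells plated in 1536-well plates.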

[2] = tested on: SCC-9 (Oral Cavity Carcinoma); test: as above
Method in brief: as §1

[3] = tested on: KU-19-19 (Bladder Carcinoma); test: as above
Method in brief: as §1

[4] = tested on: NCI-H2405 (Lung Adenocarcinoma); test: as above
Method in brief: as §1

[5] = tested on: NCI-H322M (Lung Adenocarcinoma); test: as above
Method in brief: as §1

[6] = tested on: SCC-3 (B-Cell Non-Hodgkin's Lymphoma); test: as above
Method in brief: as §1

[7] = tested on: JHH-7 (Hepatocellular Carcinoma); test: as above
Method in brief: as §1

[8] = tested on: KU-19-19 (Bladder Carcinoma); test: Bliss excess, mean over the matrix (fraction); higher = more synergy
Method in brief: as §1

[9] = tested on: KP-2 (Pancreatic Carcinoma); test: as above
Method in brief: as §1

[10] = tested on: HuP-T3 (Pancreatic Carcinoma); test: as above
Method in brief: as §1

[11] = tested on: GI-1 (Glioblastoma); test: as above
Method in brief: as §1

[12] = tested on: EBC-1 (Squamous Cell Lung Carcinoma); test: as above
Method in brief: as §1

[13] = tested on: NH-12 (Neuroblastoma); test: as above
Method in brief: as §1

[14] = tested on: OCUM-1 (Gastric Carcinoma); test: as above
Method in brief: as §1

[15] = tested on: VMRC-LCD (Lung Adenocarcinoma); test: as above
Method in brief: as §1

[16] = tested on: GOTO (Neuroblastoma); test: as above
Method in brief: as §1

[17] = tested on: EMC-BAC-2 (Non-Small Cell Lung Carcinoma); test: as above
Method in brief: as §1

[18] = tested on: BT-20 (Breast Carcinoma); test: as above
Method in brief: as §1

[19] = tested on: DG-75 (Burkitt's Lymphoma); test: as above
Method in brief: as §1

[20] = tested on: TGBC11TKB (Gastric Carcinoma); test: as above
Method in brief: as §1

SMILES	combination Emax [1]	combination Emax [2]	combination Emax [3]	combination Emax [4]	combination Emax [5]	combination Emax [6]	combination Emax [7]	Bliss excess [8]	Bliss excess [9]	Bliss excess [10]	Bliss excess [11]	Bliss excess [12]	Bliss excess [13]	Bliss excess [14]	Bliss excess [15]	Bliss excess [16]	Bliss excess [17]	Bliss excess [18]	Bliss excess [19]	Bliss excess [20]
C=CCn1c(=O)c2cnc(Nc3ccc(N4CCN(C)CC4)cc3)nc2n1-c1cccc(C(C)(C)O)n1 [AZD1775] + O=C(c1cc(Cc2n[nH]c(=O)c3ccccc23)ccc1F)N1CCN(C(=O)C2CC2)CC1 [Olaparib] (first compound max 1 µM, partner max 10 µM)	0.504	0.265	0.804	0.192	0.666	0.968	0.293	-0.0107	-0.0145	-0.0047	0.0056	-0.0549	-0.0167	-0.0214	-0.0597	-0.0271	-0.0526	-0.0681	-0.0491	-0.0299
CCN(CCO)CCCOc1ccc2c(Nc3cc(CC(=O)Nc4cccc(F)c4)[nH]n3)ncnc2c1 [AZD2811] + C=CCn1c(=O)c2cnc(Nc3ccc(N4CCN(C)CC4)cc3)nc2n1-c1cccc(C(C)(C)O)n1 [AZD1775] (first compound max 1 µM, partner max 1 µM)	0.779	0.172	0.765	0.128	0.801	0.923	0.162	-0.014	-0.001	-0.0366	0.0285	0.0075	-0.0012	-0.0127	0.0049	-0.0162	-0.0112	-0.0073	0.086	0.0257
CCN(CCO)CCCOc1ccc2c(Nc3cc(CC(=O)Nc4cccc(F)c4)[nH]n3)ncnc2c1 [AZD2811] + C[C@@H]1COCCN1C2=NC(=NC(=C2)C3(CC3)[S@](=N)(=O)C)C4=C5C=CNC5=NC=C4 [AZD6738] (first compound max 1 µM, 7x7, partner max 10 µM)	0.748	0.336	0.779	0.26	0.852	0.973	0.275	-0.0384	-0.0084	-0.067	0.0144	-0.0182	0.0347	-0.0188	-0.0853	0.027	-0.0939	-0.0356	-0.0611	-0.0091
COc1nnc2ccc(N3CCC(c4ccc(OCCN5CCN(C)C(=O)[C@H]5C)cc4)CC3)nn12 [AZD5153] + CN(CC[C@H](CSC1=CC=CC=C1)NC2=C(C=C(C=C2)S(=O)(=O)NC(=O)C3=CC=C(C=C3)N4CCC(CC4)[C@H](C5=CC=CC=C5C6=CC=C(C=C6)Cl)O)S(=O)(=O)C(F)(F)F)CCO [AZD4320] (first compound max 1 µM, 7x7, partner max 1 µM)	–	–	0.755	0.443	0.563	0.93	–	0.0829	0.0546	0.0559	–	0.0628	-0.0413	–	–	0.065	0.0491	-0.0001	-0.0557	–
CS(=O)(=O)CCNCc1ccc(-c2ccc3ncnc(Nc4ccc(OCc5cccc(F)c5)c(Cl)c4)c3c2)o1 [Lapatinib] + NC1(c2ccc(-c3nc4ccn5c(=O)[nH]nc5c4cc3-c3ccccc3)cc2)CCC1 [MK-2206] (first compound max 10 µM, 7x7, partner max 10 µM)	1	0.972	0.837	0.113	–	–	0.754	-0.0103	–	–	0.0275	–	–	-0.0313	-0.0273	–	–	–	–	-0.0334
CC(=O)c1c(C)c2cnc(Nc3ccc(N4CCNCC4)cn3)nc2n(C2CCCC2)c1=O [Palbociclib] + CN(CC[C@H](CSC1=CC=CC=C1)NC2=C(C=C(C=C2)S(=O)(=O)NC(=O)C3=CC=C(C=C3)N4CCC(CC4)[C@H](C5=CC=CC=C5C6=CC=C(C=C6)Cl)O)S(=O)(=O)C(F)(F)F)CCO [AZD4320] (first compound max 10 µM, 7x7, partner max 1 µM)	–	–	0.54	0.351	0.517	0.392	–	-0.0482	-0.0731	-0.074	–	-0.0226	0.0594	–	–	0.0226	-0.193	-0.01	-0.0373	–
C[C@@H](c1ccc2nccn2c1)n1nnc2ncc(-c3cnn(C)c3)nc21 [Savolitinib] + CN(CC[C@H](CSC1=CC=CC=C1)NC2=C(C=C(C=C2)S(=O)(=O)NC(=O)C3=CC=C(C=C3)N4CCC(CC4)[C@H](C5=CC=CC=C5C6=CC=C(C=C6)Cl)O)S(=O)(=O)C(F)(F)F)CCO [AZD4320] (first compound max 1 µM, 7x7, partner max 1 µM)	–	–	0.194	0.271	0.0979	0.0987	–	-0.0259	-0.0136	-0.0586	–	-0.0067	-0.0131	–	–	0.0166	-0.0794	-0.0084	-0.0338	–
